From ChEMBL document CHEMBL5346973 (J Med Chem, 2023) come the findings set out here.

Structures are written as SMILES. Calls of active or inactive are those of the source. No cut-off for these calls is given here.

Data set [1] concerns the target T1, Neuronal acetylcholine receptor; alpha9/alpha10 (Homo sapiens) (UniProt Q9UGM1+Q9GZZ6). The experiment in a line: Antagonist activity at human alpha9alpha10 nACh receptor expressed in Xenopus oocyte assessed as inhibition of acetylcholine-induced response at -70 mV holding potential by measuring current response at 10 nM by voltage-clamp based electrophysiological assay. Type of data set: cell-based. As to conditions: filed as antagonist.

Data set [2] concerns the target Nicotinic acetylcholine receptor alpha9/alpha10 (Rattus norvegicus) (UniProt P43144+Q9JLB5). The experiment in a line: Antagonist activity at rat alpha9alpha10 nACh receptor expressed in Xenopus oocyte assessed as inhibition of acetylcholine-induced response at -70 mV holding potential by measuring recovery at 10 nM after 5 mins by voltage-clamp based electrophysiological assay relative to control. The following applies: filed as antagonist. Type of data set: cell-based.

Data set [3] is described as follows: Stability of the compound in human serum assessed as compound remaining after 6 hr by UPLC analysis. The format is ADME, cell-free.
Data set [4] deals with Neuronal acetylcholine receptor; alpha2/beta4 (Rattus norvegicus, UniProt P12389+P12392). The experiment in a line: Antagonist activity at rat alpha2beta4 nACh receptor expressed in Xenopus oocyte assessed as inhibition of acetylcholine-induced response at -70 mV holding potential by voltage-clamp based electrophysiological assay. Type of data set: cell-based.
Data set [5] concerns the target Neuronal acetylcholine receptor; alpha3/beta4 (Rattus norvegicus, UniProt P04757+P12392). The data set can be described thus: Antagonist activity at rat alpha3beta4 nACh receptor expressed in Xenopus oocyte assessed as inhibition of acetylcholine-induced response at -70 mV holding potential by voltage-clamp based electrophysiological assay. The format is cell-based.

Data set [6] has as its target Nicotinic acetylcholine receptor alpha9/alpha10 (Rattus norvegicus, UniProt P43144+Q9JLB5). The data set can be described thus: Antagonist activity at rat alpha9alpha10 nACh receptor expressed in Xenopus oocyte assessed as inhibition of acetylcholine-induced response at -70 mV holding potential by voltage-clamp based electrophysiological assay. Type of data set: cell-based.

Data set [7] concerns the target Neuronal acetylcholine receptor; alpha4/beta4 (Rattus norvegicus, UniProt P09483+P12392). The experiment in a line: Antagonist activity at rat alpha4beta4 nACh receptor expressed in Xenopus oocyte assessed as inhibition of acetylcholine-induced response at -70 mV holding potential by voltage-clamp based electrophysiological assay. The format is cell-based.
Data set [8] has as its target Neuronal acetylcholine receptor; alpha2/beta2 (Rattus norvegicus, UniProt P12389+P12390). The data set can be described thus: Antagonist activity at rat alpha2beta2 nACh receptor expressed in Xenopus oocyte assessed as inhibition of acetylcholine-induced response at -70 mV holding potential by voltage-clamp based electrophysiological assay. Type of data set: cell-based.

Data set [9] concerns the target Neuronal acetylcholine receptor subunit alpha-7 (Rattus norvegicus, UniProt Q05941). The data set can be described thus: Antagonist activity at rat alpha7 nACh receptor expressed in Xenopus oocyte assessed as inhibition of acetylcholine-induced response at -70 mV holding potential by voltage-clamp based electrophysiological assay. The format is cell-based.
The target in data set [10] is Neuronal acetylcholine receptor; alpha4/beta2 (Rattus norvegicus, UniProt P09483+P12390). The data set can be described thus: Antagonist activity at rat alpha4beta2 nACh receptor expressed in Xenopus oocyte assessed as inhibition of acetylcholine-induced response at -70 mV holding potential by voltage-clamp based electrophysiological assay. The format is cell-based.

Data set [11] concerns the target Neuronal acetylcholine receptor; alpha9/alpha10 (Homo sapiens, UniProt Q9GZZ6+Q9UGM1). The experiment in a line: Antagonist activity at human alpha9alpha10 nACh receptor expressed in Xenopus oocyte assessed as inhibition of acetylcholine-induced response at -70 mV holding potential by voltage-clamp based electrophysiological assay. Type of data set: cell-based.

Data set [12] addresses Neuronal acetylcholine receptor; alpha3/beta2 (Rattus norvegicus, UniProt P04757+P12390). The experiment in a line: Antagonist activity at rat alpha3beta2 nACh receptor expressed in Xenopus oocyte assessed as inhibition of acetylcholine-induced response at -70 mV holding potential by voltage-clamp based electrophysiological assay. The format is cell-based.
In data set [13] the target is T1, Neuronal acetylcholine receptor; alpha9/alpha10 (Homo sapiens). The data set can be described thus: Antagonist activity at human alpha9alpha10 nACh receptor expressed in Xenopus oocyte assessed as inhibition of acetylcholine-induced response at -70 mV holding potential by measuring leftward shit in concentration response curve at 10 nM by voltage-clamp based electrophysiological assay. Type of data set: cell-based. As to conditions: filed as antagonist.

Data set [14] deals with Nicotinic acetylcholine receptor alpha6/alpha3/beta4 (Rattus norvegicus, UniProt P04757+P12392+P43143). The data set can be described thus: Antagonist activity at rat alpha6/alpha3beta4 nACh receptor expressed in Xenopus oocyte assessed as inhibition of acetylcholine-induced response at -70 mV holding potential by voltage-clamp based electrophysiological assay. The format is cell-based.

Neuronal acetylcholine receptor; alpha4/beta4, sequence (P09483 whole entry): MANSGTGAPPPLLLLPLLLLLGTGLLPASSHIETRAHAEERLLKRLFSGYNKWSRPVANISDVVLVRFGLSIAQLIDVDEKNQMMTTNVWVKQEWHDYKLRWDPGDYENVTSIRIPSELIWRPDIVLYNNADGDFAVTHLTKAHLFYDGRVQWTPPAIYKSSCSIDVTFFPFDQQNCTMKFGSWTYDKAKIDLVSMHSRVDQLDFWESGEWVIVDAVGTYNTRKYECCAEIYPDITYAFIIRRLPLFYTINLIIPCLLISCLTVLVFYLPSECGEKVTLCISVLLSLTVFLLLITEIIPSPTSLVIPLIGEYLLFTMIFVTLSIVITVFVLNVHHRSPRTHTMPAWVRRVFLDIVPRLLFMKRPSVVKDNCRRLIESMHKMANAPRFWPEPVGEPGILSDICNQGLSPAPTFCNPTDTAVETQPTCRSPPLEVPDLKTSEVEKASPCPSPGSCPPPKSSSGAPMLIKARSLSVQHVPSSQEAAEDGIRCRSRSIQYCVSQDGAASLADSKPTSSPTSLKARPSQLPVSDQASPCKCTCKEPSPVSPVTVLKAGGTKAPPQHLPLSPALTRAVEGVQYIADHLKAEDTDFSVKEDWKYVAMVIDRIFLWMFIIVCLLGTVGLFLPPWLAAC
Neuronal acetylcholine receptor; alpha4/beta4, sequence (P12392 whole entry): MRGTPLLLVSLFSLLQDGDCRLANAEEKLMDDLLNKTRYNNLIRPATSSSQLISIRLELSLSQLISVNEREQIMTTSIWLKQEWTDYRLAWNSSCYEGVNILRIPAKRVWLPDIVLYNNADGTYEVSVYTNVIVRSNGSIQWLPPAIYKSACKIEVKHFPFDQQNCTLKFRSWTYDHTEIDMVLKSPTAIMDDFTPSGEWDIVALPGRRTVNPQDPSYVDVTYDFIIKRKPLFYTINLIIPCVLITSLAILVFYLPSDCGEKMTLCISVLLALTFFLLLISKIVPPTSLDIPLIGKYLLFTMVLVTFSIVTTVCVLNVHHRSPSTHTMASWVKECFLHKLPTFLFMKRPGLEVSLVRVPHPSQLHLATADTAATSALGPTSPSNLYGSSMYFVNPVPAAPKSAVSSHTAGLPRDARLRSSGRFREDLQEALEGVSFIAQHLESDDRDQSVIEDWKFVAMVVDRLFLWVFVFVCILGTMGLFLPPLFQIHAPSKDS
Neuronal acetylcholine receptor; alpha4/beta2, sequence (P09483 whole entry): as the sequence (P09483 whole entry) above
Neuronal acetylcholine receptor; alpha4/beta2, sequence (P12390 whole entry): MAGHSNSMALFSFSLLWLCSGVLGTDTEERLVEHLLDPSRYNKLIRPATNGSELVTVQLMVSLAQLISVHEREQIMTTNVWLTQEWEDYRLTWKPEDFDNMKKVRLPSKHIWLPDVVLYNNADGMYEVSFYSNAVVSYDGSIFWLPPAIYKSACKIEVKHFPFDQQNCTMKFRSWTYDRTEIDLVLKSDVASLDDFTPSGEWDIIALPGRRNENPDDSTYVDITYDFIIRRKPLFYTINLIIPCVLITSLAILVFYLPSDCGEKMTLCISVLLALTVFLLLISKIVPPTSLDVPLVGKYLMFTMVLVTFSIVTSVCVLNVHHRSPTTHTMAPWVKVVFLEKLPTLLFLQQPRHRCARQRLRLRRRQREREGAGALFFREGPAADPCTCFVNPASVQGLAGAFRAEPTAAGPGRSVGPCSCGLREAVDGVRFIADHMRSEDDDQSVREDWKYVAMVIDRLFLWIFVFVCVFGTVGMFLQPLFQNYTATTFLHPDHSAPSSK
Neuronal acetylcholine receptor; alpha2/beta2, sequence (P12389 whole entry): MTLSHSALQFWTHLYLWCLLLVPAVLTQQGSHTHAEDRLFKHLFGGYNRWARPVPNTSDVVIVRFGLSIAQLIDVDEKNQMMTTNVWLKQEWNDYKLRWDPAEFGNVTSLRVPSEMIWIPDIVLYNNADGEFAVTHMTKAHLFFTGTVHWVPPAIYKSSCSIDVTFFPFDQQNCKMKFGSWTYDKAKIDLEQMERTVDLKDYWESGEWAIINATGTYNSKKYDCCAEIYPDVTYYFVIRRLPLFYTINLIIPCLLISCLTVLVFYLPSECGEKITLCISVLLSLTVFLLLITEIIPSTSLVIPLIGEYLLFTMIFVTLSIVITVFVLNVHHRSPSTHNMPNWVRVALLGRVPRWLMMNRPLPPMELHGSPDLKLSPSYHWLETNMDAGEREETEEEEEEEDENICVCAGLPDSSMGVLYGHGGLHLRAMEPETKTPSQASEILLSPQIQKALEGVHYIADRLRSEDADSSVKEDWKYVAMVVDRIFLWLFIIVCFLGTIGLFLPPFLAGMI
Neuronal acetylcholine receptor; alpha2/beta2, sequence (P12390 whole entry): as the sequence (P12390 whole entry) above
Neuronal acetylcholine receptor; alpha2/beta4, sequence (P12389 whole entry): as the sequence (P12389 whole entry) above
Neuronal acetylcholine receptor; alpha2/beta4, sequence (P12392 whole entry): as the sequence (P12392 whole entry) above
Neuronal acetylcholine receptor subunit alpha-7, sequence (Q05941 whole entry): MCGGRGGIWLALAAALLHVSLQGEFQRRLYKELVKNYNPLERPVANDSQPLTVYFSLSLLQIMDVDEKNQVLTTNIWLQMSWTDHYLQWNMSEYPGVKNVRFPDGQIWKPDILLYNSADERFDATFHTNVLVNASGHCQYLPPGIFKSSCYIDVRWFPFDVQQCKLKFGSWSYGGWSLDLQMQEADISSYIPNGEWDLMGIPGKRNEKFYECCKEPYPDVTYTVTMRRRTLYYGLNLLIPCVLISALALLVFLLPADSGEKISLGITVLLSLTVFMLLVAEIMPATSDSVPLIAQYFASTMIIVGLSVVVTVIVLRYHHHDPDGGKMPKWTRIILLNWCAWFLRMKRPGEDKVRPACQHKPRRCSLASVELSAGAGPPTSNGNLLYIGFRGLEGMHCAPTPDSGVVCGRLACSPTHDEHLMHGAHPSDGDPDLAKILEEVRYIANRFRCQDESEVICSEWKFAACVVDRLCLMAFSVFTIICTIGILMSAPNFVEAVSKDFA

The inhibition is the percentage by which the read-out fell short of the control. Broadly, the IC50 is the concentration that gives 50% inhibition. For the compound `CC(C)[C@H](NC(=O)[C@@H]1CSSC[C@H](NC(=O)[C@@H](N)[C@@H](C)O)C(=O)N[C@@H](CCCNC(=N)N)C(=O)N[C@@H](CO)C(=O)N[C@@H](CO)C(=O)NCC(=O)N[C@@H](CCCNC(=N)N)C(=O)N[C@@H](Cc2ccc(O)cc2)C(=O)N[C@H]2CSSC[C@H](NC(=O)[C@H](Cc3ccc(O)cc3)NC(=O)[C@H](CCCNC(=N)N)NC(=O)[C@H](CCCNC(=N)N)NC(=O)[C@H](CCCNC(=N)N)NC(=O)[C@H](CCCNC(=N)N)NC(=O)[C@H](CC(=O)O)NC(=O)[C@H](Cc3ccc(O)cc3)NC(=O)[C@@H]3CCCN3C(=O)[C@H](CO)NC(=O)[C@H](CCCNC(=N)N)NC2=O)C(=O)N[C@@H](CCCNC(=N)N)C(=O)N[C@@H](CCCNC(=N)N)C(=O)N[C@@H](C)C(=O)N[C@@H]([C@@H](C)O)C(=O)N[C@@H](CC(=O)O)C(=O)N[C@@H](C)C(=O)N1)C(=O)O`, in data set [1], the inhibition turned out to be 60%. Also, in data set [2], the result was Active. Further, the Stability result in [3] is on record as “Stable”. For the same compound, the 50% inhibitory concentration (IC50) came out at 3.65 µM in data set [4]; 6.03 µM in data set [5]; 0.0014 µM in [6]; 8.24 µM in data set [7]; 2.99 µM in data set [8]; 1.36 µM in data set [9]. The half-maximal inhibitory concentration (IC50) in [10] was determined as 3.15 µM; in data set [11] it was 0.011 µM; in [12], 1.46 µM; in data set [14] it was 4.01 µM. Besides, the inhibition result in [13] was “Active”.
